Laboratory results taken from patent publication US20250027072A1, “METHODS AND CO[…] TO ENGINEERED CANNABINOID RECEPTORS” (priority 2021, published 2025).
Like-named read-outs stand apart in the source and are kept apart here.

Key:
Assay type in all cases: cell-based
[1] = target: T1, human Cannabinoid Receptor 1 (CB1R) (Homo sapiens, UniProt P21554); details: for Normalized Activity at 1 μM, CB1R: PINACA compounds; for maximal signaling in CB1R dose response: dose-response curves; for EC50: read-out: EC50 at CB1R, synthetic cannabinoid dose response; for Normalized Activity at 1 μm, CB1R: 5-fluoro PB-22 isomers
T1 construct: syn-prepro (synthetic yeast pre-pro secretion leader) (N); expressed in transfected cells; host or cells: Saccharomyces cerevisiae BY4741-derived strain (ste2, sst2, far1 knocked out); Gpa1-Gαi3 chimera

[2] = target: human cannabinoid receptor type II (CB2R) (Homo sapiens, UniProt P34972); experiment: cell-based; parameters: Normalized Activity at 1 μM, CB2R; other: PINACA compounds, 1 μM; Normalized Activity at 1 μm, CB2R; other: 5-fluoro PB-22 isomers, 1 μm; other: MFα-CB2R, ST03 sterol strain, pH 5.8; activity against CB2R; other: at 10 nM, dose response; preference at CB2R of ADB-BINACA over AB-PINACA; signaling at CB2R in synthetic cannabinoid screen; fused on or other part: yeast mating factor alpha (MFα) pre-pro leader fused at the N-terminus as a trafficking signal; details: for signaling at CB2R in synthetic cannabinoid screen: compounds at 1 μM; for Normalized Activity at 1 μM, CB2R: PINACA compounds; for EC50: MFα-CB2R, ST03 sterol strain, pH 5.8; for Normalized Activity at 1 μm, CB2R: 5-fluoro PB-22 isomers
Protocol: (§1) To efficiently transduce signals from the human machinery to the yeast pathway, the yeast 5 C-terminal residues of the G-alpha gene GPA1 were replaced with the sequence of the Gαi3 human G-alpha variant as previously described (Brown et al. 2000). ZsGreen1 was used to report on the activity of the pathway, integrating it into the genome in place of the pheromone-inducible Fig1 gene (FIG. 14A).
(§2) Yeast colonies were picked and grown overnight to saturation in pH 5.8 SD-His media in a 2.2 mL deep well plate (Axygen) grown in a plate-shaking incubator (30° C., 1000 rpm, 3 mm orbital). In the morning cultures were diluted 1:10 or 1:25 in SD-His media buffered to pH 7.1 with 100 mM MOPSO (unless otherwise specified). Ligands were added to the culture and incubated with shaking for 8 hours. Cells were then washed three times with ice-cold Tris buffer (pH 7) and diluted 1:20 for cytometry. All cytometry was performed on a Sony SA3800 spectral analyzer. Each sample was tested for 10,000 events, and read at a rate of 1,000 events per second. All assays as reported here were filtered only for singlet populations.

[3] = system: human cannabinoid receptor type II (CB2R); experiment: cell-based; details: dual biosensor screen at 1 μM
Protocol: as §1, §2

[4] = system: human Cannabinoid Receptor 1 (CB1R)
[5] = syn-prepro-Δ89-CB1R, wild type ergosterol strain

T1 sequence (P21554 90-472): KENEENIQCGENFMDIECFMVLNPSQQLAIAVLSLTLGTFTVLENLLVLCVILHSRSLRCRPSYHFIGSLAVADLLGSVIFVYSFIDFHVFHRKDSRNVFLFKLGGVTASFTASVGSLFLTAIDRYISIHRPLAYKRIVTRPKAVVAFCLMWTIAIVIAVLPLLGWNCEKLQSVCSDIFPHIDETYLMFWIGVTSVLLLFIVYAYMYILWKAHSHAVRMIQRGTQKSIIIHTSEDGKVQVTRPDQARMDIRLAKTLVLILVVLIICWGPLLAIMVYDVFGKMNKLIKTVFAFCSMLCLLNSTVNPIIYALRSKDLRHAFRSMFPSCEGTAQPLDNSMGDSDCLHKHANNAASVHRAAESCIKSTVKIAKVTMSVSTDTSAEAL
human cannabinoid receptor type II (CB2R) (Homo sapiens, UniProt P34972), sequence (P34972 whole entry, the tested form may be a part): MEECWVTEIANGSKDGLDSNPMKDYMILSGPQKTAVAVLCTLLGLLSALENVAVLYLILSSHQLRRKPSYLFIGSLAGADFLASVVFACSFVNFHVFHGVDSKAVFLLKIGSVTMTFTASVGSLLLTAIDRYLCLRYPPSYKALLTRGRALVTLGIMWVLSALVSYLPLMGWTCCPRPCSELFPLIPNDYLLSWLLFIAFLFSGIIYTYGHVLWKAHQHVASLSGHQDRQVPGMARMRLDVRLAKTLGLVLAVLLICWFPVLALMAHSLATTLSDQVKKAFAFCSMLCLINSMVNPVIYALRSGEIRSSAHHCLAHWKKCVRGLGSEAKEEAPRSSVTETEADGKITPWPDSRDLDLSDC

SMILES: CC(C)[C@H](NC(=O)c1cn(Cc2ccccc2)c2ccccc12)C(N)=O [AB-BICA]
- signaling at CB1R in synthetic cannabinoid screen relative to 100 μM ACEA positive control ([1]; compounds at 1 μM): CB1R agonists
- signaling at CB2R in synthetic cannabinoid screen [2]: poor CB2R signalers

SMILES: CCCCCn1nc(C(=O)NC(C(N)=O)C(C)(C)C)c2ccccc21 (stereo not shown) [drawing 2]
- Normalized Activity at 1 μM, CB1R [1]: 0.590
- Normalized Activity at 1 μM, CB2R [2]: 0.700

SMILES: CCCCCn1nc(C(=O)N[C@@H](CCCC)C(N)=O)c2ccccc21
- Normalized Activity at 1 μM, CB1R [1]: 0.735
- Normalized Activity at 1 μM, CB2R [2]: 0.460

SMILES: CC(C)c1c(O)ccc2c1CC[C@H]1C(C)(C)CCC[C@]21C [Totarol]
- EC50 ([2]; EC50 at CB2R, dose response): 485 nM
- activity against CB2R ([2]; at 10 nM, dose response): active

SMILES: CC1(C)C(C(=O)c2cn(CCN3CCOCC3)c3ccccc23)C1(C)C [A-796260]
- signaling at CB2R in synthetic cannabinoid screen [2]: among the top CB2R targets

SMILES: CCCC(NC(=O)c1nn(Cc2ccc(F)cc2)c2ccccc12)C(N)=O (single isomer, unassigned; isomer 1) [AB-FUBINACA isomer 1]
- signaling at CB1R in synthetic cannabinoid screen relative to 100 μM ACEA positive control ([1]; compounds at 1 μM): greatest activity of all the isomers
- maximal signaling in CB1R dose response [1]: high maximal signaling
- EC50 [1, 5]: 0.01 nM

SMILES: CCCCCn1nc(C(=O)NC(C)(C(N)=O)C(C)C)c2ccccc21 (stereo not shown)
- Normalized Activity at 1 μM, CB1R [1]: 0.810
- Normalized Activity at 1 μM, CB2R [2]: 0.303

SMILES: CC(C)(C)C(NC(=O)c1c2ccccc2nn1CCCCCF)C(N)=O (single isomer, unassigned; isomer 2) [5-fluoro ADB-PINACA isomer 2]
- EC50 at CB1R, synthetic cannabinoid dose response [1, 5]: low nanomolar range
- EC50 [1, 5]: 2.25 nM

SMILES: CC(C)[C@H](NC(=O)c1nn(Cc2ccc(F)cc2)c2ccccc12)C(N)=O [AB-FUBINACA]
- relative fluorescence of the ACEA positive control at CB1R ([1]; compounds at 10 nM, 100 μM ACEA control): strong signaling
- signaling at CB1R in synthetic cannabinoid screen relative to 100 μM ACEA positive control ([1]; compounds at 1 μM): maximal fluorescence
- maximal signaling in CB1R dose response [1]: high maximal signaling
- EC50 [1, 5]: 0.66 nM

SMILES: O=C(Oc1cccc2ccncc12)c1cn(CCCCCF)c2ccccc12
- Normalized Activity at 1 μm, CB2R [2]: 0.771

SMILES: O=C(Oc1ccc2cnccc2c1)c1cn(CCCCCF)c2ccccc12
- Normalized Activity at 1 μm, CB2R [2]: 0.331

SMILES: CC1(C)C(C(=O)c2cn(CC3CCOCC3)c3ccccc23)C1(C)C [A-834735]
- receptor bias CB2R versus CB1R [3]: CB2R-biased
- EC50 ([2]; read-out: EC50 at CB2R, dose response): 7.42 nM

SMILES: CN1CCCCC1Cn1cc(C(=O)c2cc([N+](=O)[O-])ccc2I)c2ccccc21 (stereo not shown) [AM-1241]
- signaling at CB1R in synthetic cannabinoid screen relative to 100 μM ACEA positive control [1]: at most approximately half the relative fluorescence of the ACEA positive control

SMILES: CC(C)(C)C(NC(=O)c1cn(Cc2ccccc2)c2ccccc12)C(N)=O (stereo not shown)
- Normalized Activity at 1 μM, CB1R [1]: 0.842
- Normalized Activity at 1 μM, CB2R [2]: 0.255

SMILES: O=C(Oc1ccnc2ccccc12)c1cn(CCCCCF)c2ccccc12 [5-fluoro PB-22 4-hydroxyquinoline isomer]
- factor by which CB1 is favored over CB2 [4]: ~3

SMILES: O=C(Oc1cnc2ccccc2c1)c1cn(CCCCCF)c2ccccc12
- Normalized Activity at 1 μm, CB1R [1]: 0.530

SMILES: COc1ccc(C(=O)c2c(C)n(CCN3CCOCC3)c3cc(Br)ccc23)cc1 [WIN54,461]
- signaling at CB1R in synthetic cannabinoid screen relative to 100 μM ACEA positive control ([1]; compounds at 1 μM): at most approximately half the relative fluorescence of the ACEA positive control

SMILES: O=C(Oc1ccnc2ccccc12)c1cn(CCCCCF)c2ccccc12 [drawing 16]
- Normalized Activity at 1 μm, CB1R [1]: 0.829
- Normalized Activity at 1 μm, CB2R [2]: 0.247

SMILES: CCCCCn1nc(C(=O)N[C@H](C(N)=O)C(C)C)c2ccccc21 [drawing 1]
- Normalized Activity at 1 μM, CB1R [1]: 0.550

SMILES: CCCCCn1cc(-c2nc(CN(CC)CC)cs2)c2ccccc21 [PTI-1]
- signaling at CB1R in synthetic cannabinoid screen relative to 100 μM ACEA positive control ([1]; compounds at 1 μM): CB1R agonists
- signaling at CB2R in synthetic cannabinoid screen [2]: poor CB2R signalers

SMILES: CCCC(F)Cn1nc(C(=O)Oc2cccc3cccnc23)c2ccccc21 (stereo not shown)
- Normalized Activity at 1 μm, CB1R [1]: 0.531
- Normalized Activity at 1 μm, CB2R [2]: 0.582
